From patent publication US20230330051A1, “METHOD FOR MODULATING WEIGHT” (Yeda Research and Development Co. Ltd., priority 2020, published 2023) come the findings set out here.

Type in all cases: in vivo, C57BL/6J male mice
Test [1] is described as follows: Weight change of naive HFD-consuming mice upon metabolite administration. As to conditions: naive HFD-consuming 10-week-old C57bl male mice. An excerpt:
Mice. Eight-weeks old C57BL/6J male mice were purchased from Harlan. All mice were maintained in the animal facility of the Weizmann Institute and acclimatized for two weeks before the initiation of experiments. Mice were fed on normal chow (NC) or switched to a high-fat diet (HFD, D12492, 60% kcal from fat, Research Diets)/ choline-deficient diet (CDD, rodent diet with 60 kcal % fat without added Choline) three days prior to the experimental starting point. […] For all experiments, the mice were assigned to each group based on their weight in order to create weight-matched groups and eliminate weight differences at the beginning of the experiments. […] Lean and fat mass was determined by nuclear magnetic resonance (NMR) using Bruker minispec LF50.mq7.5 MHZ live mice analyzer.
(§1) Data extraction and compound identification- raw data was extracted, peak-identified and QC processed using Metabolon's hardware and software. […] The cut was then closed with sterile surgical clips and the mice were carefully monitored for any signs of stress, bleeding, pain, or abnormal behavior. […]
Importantly, the predicted levels of biosynthetic enzymes (PICRUSTt2, P542-PWY) of the choline to betaine pathway and the pathway's measured intermediary levels (Choline to Betaine) were altered in actively smoking mice (FIG. 1D). […]

Test [2] is described as follows: Smoking cessation-associated weight gain (SCWG) model in mice.
Excerpt: Mice. Eight-weeks old C57BL/6J male mice were purchased from Harlan. All mice were maintained in the animal facility of the Weizmann Institute and acclimatized for two weeks before the initiation of experiments. Mice were fed on normal chow (NC) or switched to a high-fat diet (HFD, D12492, 60% kcal from fat, Research Diets)/ choline-deficient diet (CDD, rodent diet with 60 kcal % fat without added Choline) three days prior to the experimental starting point. […] For all experiments, the mice were assigned to each group based on their weight in order to create weight-matched groups and eliminate weight differences at the beginning of the experiments. Two weeks before experimental starting point, antibiotic-treated groups were given a combination of vancomycin (0.5 g/l), ampicillin (1 g/l), neomycin (1 g/l), and metronidazole (1 g/l) ad libitum in their drinking water, referred to as 4-way abx. […] Lean and fat mass was determined by nuclear magnetic resonance (NMR) using Bruker minispec LF50.mq7.5 MHZ live mice analyzer.
Cigarette Smoke Exposure. […] Smoke levels were measured at least twice daily. […]
as §1

Test [3] can be described thus: Bomb calorimetry of stool (residual caloric content). Conditions: three weeks into DMG or PBS administration; inversely correlates with intestinal energy harvest. On the procedure: Bomb calorimetry. Mice were transferred to a clean single housed cage, fecal samples collected and stored at −80° C. Before use, samples were dried with FreeZone 4.5-liter cascade benchtop freeze dry system (Labconco) for 24 hours. Gross energy content was measured using a water handling system (6510) and a bomb calorimeter (6200) by Parr Instrument Co. The calorimeter energy equivalent factor was determined using benzoic acid standards.

Molecules are shown by their SMILES.

For `CC(=O)NCC(=O)O` [ACG, N-acetylglycine], the “Weight gain under ACG consumption” value in test [1] (7500 mg N-Acetylglycine/kg diet, vs HFD-fed control) is given as “significantly lower weight gain”. Moreover, in test [2] (non-antibiotics-treated smoking-cessation mice, HFD-ACG vs HFD), the “SCWG upon ACG supplementation” value was “prevented SCWG”.
Turning to `CN(C)CC(=O)O` [DMG, N,N-Dimethylglycine], in test [1] (osmotic pumps, 100 mg/kg/day, 21 days, vs vehicle (PBS)), the “Weight change upon DMG administration” value was “significant weight gain”. The “Residual caloric content in stool” value in test [3] was “lower residual calories”. Moreover, the “SCWG upon DMG supplementation” value in test [2] (antibiotics-treated smoking-cessation HFD-fed mice, DMG via osmotic pumps started prior to cessation, vs vehicle) was “restored SCWG”.
